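Assay format: 96-well plates, 48-hour exposure. At the GI50, growth is halved.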 Active and inactive are the calls of the source. Cut-off read from the data, not from the text of the source: active = GI50 up to about 1.1 µM and inactive = higher.
Tests used:
Assay in all cases: NCI-60 cell line screen, 48 h
TK-10 = system: TK-10
NCI-H522 = system: NCI-H522
CCRF-CEM = system: CCRF-CEM
NCI-H460 = system: NCI-H460
IGROV-1 = system: IGROV-1
HT-29 = system: HT-29
SN12C = system: SN12C
M14 = system: M14
ACHN = system: ACHN
LOX IMVI = system: LOX IMVI
OVCAR-8 = system: OVCAR-8
NCI-H226 = system: NCI-H226
RXF 393 = system: RXF 393
HL-60 = system: HL-60
HCT-116 = system: HCT-116
HOP-62 = system: HOP-62
DMS-273 = system: DMS-273
SW-620 = system: SW-620
SK-MEL-5 = system: SK-MEL-5
EKVX = system: EKVX
SF-295 = system: SF-295
KM12 = system: KM12
UO-31 = system: UO-31
U-251 = system: U-251
NCI-H23 = system: NCI-H23
UACC-257 = system: UACC-257
LXFL 529 = system: LXFL 529
A549 = system: A549
SF-268 = system: SF-268
SNB-19 = system: SNB-19
CAKI-1 = system: CAKI-1
SNB-78 = system: SNB-78
UACC-62 = system: UACC-62
SK-OV-3 = system: SK-OV-3
HOP-92 = system: HOP-92
SR = system: SR
HCC 2998 = system: HCC 2998
SK-MEL-28 = system: SK-MEL-28
RXF 631 = system: RXF 631
OVCAR-5 = system: OVCAR-5
MOLT-4 = system: MOLT-4
K562 = system: K562
HCT-15 = system: HCT-15
786-0 = system: 786-0
XF498 = system: XF498
SK-MEL-2 = system: SK-MEL-2
COLO 205 = system: COLO 205
SNB-75 = system: SNB-75
HOP-18 = system: HOP-18
OVCAR-3 = system: OVCAR-3
OVCAR-4 = system: OVCAR-4
M19-MEL = system: M19-MEL
Malme-3M = system: Malme-3M
DLD-1 = system: DLD-1
SF-539 = system: SF-539
DMS-114 = system: DMS-114
KM-20L2 = system: KM-20L2
RPMI-8226 = system: RPMI-8226

Measured: GI50

C/N=c1/ss/c(=N\C(SC)=[N+](C)C)n1C.[O-][Cl+3]([O-])([O-])[O-]
active: SK-MEL-5 0.419 µM
inactive: TK-10 > 100 µM | NCI-H522 14.8 µM | CCRF-CEM 3.97 µM | NCI-H460 4.09 µM | IGROV-1 > 100 µM | HT-29 4.98 µM | SN12C > 100 µM | M14 > 100 µM | ACHN > 100 µM | LOX IMVI > 100 µM | OVCAR-8 > 100 µM | NCI-H226 > 100 µM | RXF 393 > 100 µM | HL-60 31.3 µM | HCT-116 > 100 µM | HOP-62 > 100 µM | DMS-273 > 100 µM | SW-620 > 100 µM | EKVX 80.7 µM | SF-295 > 100 µM | KM12 > 100 µM | UO-31 > 100 µM | U-251 > 100 µM | NCI-H23 > 100 µM | UACC-257 > 100 µM | LXFL 529 > 100 µM | A549 > 100 µM | SF-268 > 100 µM | SNB-19 > 100 µM | CAKI-1 54.8 µM | SNB-78 > 100 µM | UACC-62 3.99 µM | SK-OV-3 > 100 µM | HOP-92 > 100 µM | SR > 100 µM | HCC 2998 > 100 µM | SK-MEL-28 > 100 µM | RXF 631 8.13 µM | OVCAR-5 > 100 µM | MOLT-4 21.1 µM | K562 17.3 µM | 786-0 > 100 µM | XF498 > 100 µM | SK-MEL-2 > 100 µM
> 100 µM: HCT-15

CCOC(=O)C(C)c1cc(C2(C)OCCO2)c(C)o1 (configuration not stated)
> 100 µM: HCT-15
inactive: TK-10 > 100 µM | CCRF-CEM > 100 µM | NCI-H460 > 100 µM | COLO 205 > 100 µM | IGROV-1 > 100 µM | SN12C > 100 µM | M14 > 100 µM | ACHN > 100 µM | LOX IMVI > 100 µM | OVCAR-8 > 100 µM | RXF 393 > 100 µM | HL-60 > 100 µM | SNB-75 88.9 µM | HCT-116 > 100 µM | HOP-62 > 100 µM | DMS-273 > 100 µM | SW-620 > 100 µM | HOP-18 > 100 µM | SK-MEL-5 > 100 µM | EKVX > 100 µM | SF-295 > 100 µM | OVCAR-3 > 100 µM | KM12 > 100 µM | UO-31 > 100 µM | OVCAR-4 > 100 µM | U-251 > 100 µM | NCI-H23 > 100 µM | M19-MEL > 100 µM | Malme-3M > 100 µM | LXFL 529 > 100 µM | DLD-1 > 100 µM | SF-539 > 100 µM | A549 > 100 µM | SF-268 > 100 µM | SNB-19 > 100 µM | SNB-78 > 100 µM | DMS-114 > 100 µM | UACC-62 > 100 µM | SK-OV-3 > 100 µM | KM-20L2 > 100 µM | HOP-92 8.63 µM | HCC 2998 > 100 µM | RXF 631 > 100 µM | OVCAR-5 > 100 µM | MOLT-4 > 100 µM | K562 > 100 µM | 786-0 > 100 µM | RPMI-8226 > 100 µM | XF498 > 100 µM | SK-MEL-2 > 100 µM

Source: ChEMBL document CHEMBL1201862, “PubChem BioAssay data set” (2004)
